Read-outs that look alike come from different tables or passages of the source.
Columns and labels:
[1] = test system: HL-60 cells; test: Cell proliferation inhibition, CellTiterGlo viability assay, 4 days (Example 102); assay type: cell-based; details: 4 days treatment
Text: (§1) The objective of the study was to evaluate the ability of compounds of the invention, inhibitors of Menin/MLL interaction to inhibit cell proliferation. The proliferation inhibitory effect was investigated in two human MLL-leukemia cells selected on the bases of MLL fusion protein and listed in Table 1. HL-60 cell line was used as negative control (Table 3).
(§2) ATP is present in all metabolically active cells and is considered as a marker for cell viability and proliferation. The metabolic cell activity was determined using the CellTiter-Glo kit from Promega, an ATP monitoring system based on the production of luminescence by the reaction of ATP with added UltraGlo® recombinant luciferase (Kawano et al., 2016), according to the supplier's experimental recommendations.
(§3) The described assay evaluates the ability of representative compounds of invention to inhibit the cell proliferation in the human MLL-leukemia cells plus a negative control cell line.
(§4) The assay provides potency values (IC50) for each test compound at a single time point Day 4 (T4).
(§5) Seven concentrations of the NCEs (2.00E-05-6.67E-06-2.22E-06-7.41E-07-2.47E-07-8.23E-08-2.74E-08M), were assessed in duplicate in an individual test occasion in all the cell lines. MI-503 (Borkin et al., 2015) was used as reference compound and was tested at the same concentrations as the NCEs. 100% of proliferation is represented by the untreated cells (0.2% DMSO). The cell growth was monitored up to 4 days in culture.
(§6) MV4-11, MOLM-13 and HL-60 cells (see Table 2) were maintained in RPMI-1640 medium (Invitrogen, Cat. n. 618700, Batch n. 1965930) supplemented with 10% of Heat Inactivated FBS (Invitrogen, Cat n. 10500, Batch n. 08Q8078K) and 1% Pen-Strep (Invitrogen, Cat. N. 15140, Batch n. 1910859) and cultured at 37° C. in a humidified incubator with 5% CO2. All the cell lines grow in suspension and the cell density was maintained in a range of 2×10^5-1×10^6 viable cells/ml. Cells were pelleted at 130 g×5 min and conditioned medium was used to dilute the cell suspension.
(§7) Cells were plated in 96-well flat bottom microtiter plates at cell density of 15,000 cells/ml for HL-60, 1000 cells/ml for MOLM-13 and 10,000 cell/ml for MV4-11. Cells were treated with 0.2% DMSO (Sigma, D8418, batch n. SHBH4245V) or serial dilutions of compounds ([…]) in DMSO (0.2% final concentration). Cells were incubated in a 5% CO2 incubator at 37° C. for 4 days. A CellTiterGlo viability assay (Promega) was employed. Luminescence was read by using VictorV (Perkin Elmer) multilabel plate reader using the standard protocol for luminescence in 96 well plate. The experiment was performed in duplicate.
(§8) Data were expressed as % of inhibition compared to the 0.2% DMSO negative control, and was calculated as follows: % inhibition=100−[(RLU sample)×100/(RLU average controls*)]*cells containing 0.2% DMSO
(§9) CRCs were analysed by GraphPad and IC50 values were calculated by non-linear regression using 4 parameter-logistic equation. IC50 (μM) values were reported in the final data table. The curve fittings were performed leaving free all the parameters. Any constrain were reported in the results table.

[2] = test system: HL-60 cells; test: Long-term proliferation (LTP) assay, CellTiterGlo (Example 103); assay type: cell-based; details: for IC50: Homo sapiens
Method: (§10) The day of the experiment (TO) all the cell line suspensions were counted by Cell Viability Analyser, Vi-CELL and properly diluted with fresh medium to obtain the cell density reported in the Test System paragraph.
(§11) Cells were tested after 4 passages after thawing.
(§12) 200 μL/well and 150 μL/well of cell suspension were added into the 0.4 µL/well and 0.3 μL/well compound plates, respectively. • Cell plate containing 200 μL/well suspension was incubated at 37° C. in a humidified incubator with 5% CO2. • From each well of the 150 µL/well cell assay plate, 100 μL were harvested and transferred into a 96-well Optiplate (Perkin Elmer, Cat. n. 6005290) and cell viability was measured as described in 4.3 paragraphs (TO). • After four days in culture (T4) 150 μL/well of fresh medium were added into a new […] copy compound plate. • From each well of the 200 μL/well cell assay plate: • 100 μL were sampled for the cell viability measurement as described in 4.3 paragraphs (T4). • 50 μL were harvested and added to the 150 μL/well compound plate prepared as described in the first point to dilute 1:4 the cell suspension. • The cell assay plate diluted and containing 200 µL/well suspension were incubated at 37° C. in a humidified incubator with 5% CO2.
(§13) At T7-T11-T14 it was proceeded as described in T4, with the exception that no further cell dilution was carried out at T14.
(§14) Plates containing the samples to be tested were equilibrated at room temperature for approximately 30 min and then 30 μL/well of the Promega CellTiterGlo® reagent were added. Contents will be mixed for 5 min on an orbital shaker to induce cell lysis and then incubated at room temperature for an additional 10 min to stabilize the luminescent signal.
(§15) Luminescence was read by using VictorV (Perkin Elmer) multilabel plate reader using the standard protocol for luminescence in 96 well plate.
(§16) Data were expressed as % of inhibition compared to the 0.2% DMSO negative control, and was calculated as follows: % inhibition=100−[(RLU sample)×100/(RLU average controls*)] • *cells containing 0.2% DMSO
(§17) CRCs were analysed by GraphPad and IC50 values were calculated by non-linear regression using 4 parameter-logistic equation. IC50 (M) values were reported in the final data table.

[3] = test system: RS4-11 (MLL-AF4) cells; test: as above; assay type: cell-based; details: for IC50: Homo sapiens, RS4-11 (MLL-AF4), LTP assay; for effect on cell viability at T4: RS4;11, increasing concentrations
Method: as §10, §11, §12, §13, §14, §15, §16, §17

[4] = test system: MV4-11 (MLL-AF4) cells; test: as above; assay type: cell-based, human; details: for IC50: Homo sapiens, MV4-11 (MLL-AF4), LTP assay
Method: as §10, §11, §12, §13, §14, §15, §16, §17

[5] = test system: MOLM-13 (MLL-AF9) cells; test: as above; assay type: cell-based, human; details: for IC50: Homo sapiens, MOLM-13 (MLL-AF9), LTP assay
Method: as §10, §11, §12, §13, §14, §15, §16, §17

[6] = test system: MV4-11 (MLL-AF4) cells; test: Cell proliferation inhibition, CellTiterGlo viability assay, 4 days (Example 102); assay type: cell-based, human; details: 4 days treatment
Text: as §1, §2, §3, §4, §5, §6, §7, §8, §9

[7] = test system: MOLM-13 (MLL-AF9) cells; test: as above; assay type: cell-based, human; details: 4 days treatment
Text: as §1, §2, §3, §4, §5, §6, §7, §8, §9

[8] = target: T1, menin-MLL protein-protein interaction (Homo sapiens, UniProt O00255); details: S. Xu et al. Angewandte Chemie; cited from earlier work
T1 sequence (O00255 1-610): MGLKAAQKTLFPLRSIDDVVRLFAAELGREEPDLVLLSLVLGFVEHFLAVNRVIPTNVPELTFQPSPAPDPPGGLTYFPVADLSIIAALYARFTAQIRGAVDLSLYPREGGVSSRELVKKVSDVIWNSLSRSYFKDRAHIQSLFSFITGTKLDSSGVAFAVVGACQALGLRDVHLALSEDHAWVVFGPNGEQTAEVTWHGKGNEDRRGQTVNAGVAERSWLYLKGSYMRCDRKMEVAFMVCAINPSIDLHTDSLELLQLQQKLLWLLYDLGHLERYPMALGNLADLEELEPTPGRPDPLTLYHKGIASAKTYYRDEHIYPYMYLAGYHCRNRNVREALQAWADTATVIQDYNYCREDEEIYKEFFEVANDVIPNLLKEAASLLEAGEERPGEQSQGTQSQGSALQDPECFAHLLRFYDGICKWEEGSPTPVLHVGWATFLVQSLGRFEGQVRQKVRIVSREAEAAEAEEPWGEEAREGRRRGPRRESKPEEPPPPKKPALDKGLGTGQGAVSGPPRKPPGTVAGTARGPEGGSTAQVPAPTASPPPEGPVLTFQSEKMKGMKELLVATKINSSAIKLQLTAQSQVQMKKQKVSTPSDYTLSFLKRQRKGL

[9] = Homo sapiens, 96 h, read-out: IC50
[10] = 96 h, Day 4, LTP assay, read-out: Day 4 IC50
[11] = 168 h, Day 7, LTP assay, read-out: Day 7 IC50
[12] = 264 h, Day 11, LTP assay, read-out: Day 11 IC50
[13] = 336 h, Day 14, LTP assay, read-out: Day 14 IC50
[14] = 96 h, Day 4, read-out: Day 4 IC50
[15] = 168 h, Day 7, read-out: Day 7 IC50
[16] = 264 h, Day 11, read-out: Day 11 IC50
[17] = 336 h, Day 14, read-out: Day 14 IC50
[18] = Homo sapiens, 96 h, read-out: pIC50 (converted)

Row | IC50 [2, 10] | IC50 [2, 11] | IC50 [2, 12] | IC50 [2, 13] | IC50 [3, 14] | IC50 [3, 15] | IC50 [3, 16] | IC50 [4, 14] | IC50 [4, 15] | IC50 [4, 16] | IC50 [4, 17] | IC50 [5, 14] | IC50 [5, 15] | IC50 [5, 16] | IC50 [5, 17] | Compound | % max ([1]; CellTiterGlo) | % max [6] | % max [7] | effect on cell viability at T4 [3] | other results
1 | 790 nM | 600 nM | 780 nM | 890 nM | 550 nM | 112 nM | > 5000 nM | 760 nM | 580 nM | 550 nM | 380 nM | 830 nM | 450 nM | 500 nM | 720 nM | C=CC(=O)NC1CN(c2ccnc(NC(=O)Nc3ccc(-c4cc5c(N6CCOCC6)ncnc5[nH]4)cc3)c2)C1 [Compound 1] | 80% | 98% | 85% | – | IC50 ([1]; Homo sapiens, 96 h, CellTiterGlo, read-out: pIC50 (converted)): 195 nM; IC50 [1, 9]: 190 nM; IC50 [6, 9]: 150 nM; IC50 [6, 18]: 151 nM; IC50 [7, 9]: 200 nM; IC50 [7, 18]: 200 nM
2 | 1150 nM | 680 nM | 850 nM | 890 nM | 1450 nM | 1550 nM | > 5000 nM | 650 nM | 460 nM | 350 nM | 350 nM | 1020 nM | 410 nM | 320 nM | 330 nM | CN(C)C/C=C/C(=O)NC1CN(c2ccnc(NC(=O)Nc3ccc(-c4cc5c(N6CCOCC6)ncnc5[nH]4)cc3)c2)C1 [Compound 15] | – | – | – | fully inhibited | effect on cell viability at T4 ([2]; T4, increasing concentrations): fully inhibited; effect on cell viability at T4 ([4]; MV4-11, T4, increasing concentrations): fully inhibited; effect on cell viability at T4 ([5]; MOLM-13, T4, increasing concentrations): fully inhibited
3 | – | – | > 5000 nM | – | 1480 nM | 930 nM | > 5000 nM | – | 4370 nM | 1700 nM | 1230 nM | – | – | 1410 nM | 3890 nM | C=CC(=O)NC1CN(c2ccnc(NC(=O)Nc3ccc(-c4nc5c(N6CCOCC6)nccc5[nH]4)cc3)c2)C1 [Compound 23] | – | – | – | showed an effect | activity up to T14 ([2]; up to T14): absence of activity; change of effect with the time in culture ([4]; MV4-11, along the 14 days in culture): increase of the effect; IC50 ([5]; 96 h, heading: Day 4 IC50, Day 4, read-out: Day 4 IC50): > 5000 nM; IC50 ([5]; 168 h, heading: Day 7 IC50, Day 7, read-out: Day 7 IC50): > 5000 nM; change of effect with the time in culture ([5]; MOLM-13, along the 14 days in culture): increase of the effect
4 | – | – | – | – | – | – | – | – | – | – | – | – | – | – | – | COC(=O)N[C@H]1CCC[C@@H]1[C@](C#N)(c1cccc(F)c1)C1CCN(CC2CN(c3ccc(S(=O)(=O)C4CN(C(=O)/C=C/CN(C)C)C4)cc3)C2)CC1 [Compound M-525] | – | – | – | – | potency relative to the corresponding reversible inhibitors [8]: > 30 times
5 | – | – | – | – | – | – | – | – | – | – | – | – | – | – | – | Cc1c(CN2CCC(Nc3ncnc4sc(CC(F)(F)F)cc34)CC2)ccc2c1cc(C#N)n2Cc1cn[nH]c1 [MI-503, reference compound] | 103% | 100% | 98% | – | pIC50 ([1]; CellTiterGlo): 6.38; IC50 ([1]; CellTiterGlo, read-out: IC50): 420 nM; pIC50 [6]: 6.73; IC50 ([6]; read-out: IC50): 190 nM; pIC50 [7]: 6.63; IC50 ([7]; read-out: IC50): 230 nM
